Reference: ChEMBL document CHEMBL5214948, “Boronic Acid: A Novel Pharmacophore Targeting Src Homology 2 (SH2) Domain of STAT3” (J Med Chem, 2022)

Columns and labels:
AGS = experiment: Antiproliferative activity against human AGS cells assessed as reduction in cell viability incubated for 72 hrs by CCK-8 assay; type: functional, cell-based
MGC-803 = experiment: Antiproliferative activity against human MGC-803 cells assessed as reduction in cell viability measured after 72 hrs by CCK-8 assay; type: functional, cell-based; settings: MGC-803, 72 h

Row | IC50 (AGS) [µM] | IC50 (MGC-803) [µM] | Compound
1 | 2.57 | 4.71 | C[C@@H](C(=O)N(Cc1ccc(C2CCCCC2)cc1)c1ccc(B(O)O)cc1)N(C)S(=O)(=O)c1c(F)c(F)c(F)c(F)c1F
2 | 2.78 | 6.07 | O=C([C@H]1CCCN1S(=O)(=O)c1c(F)c(F)c(F)c(F)c1F)N(Cc1ccc(C2CCCCC2)cc1)c1ccc(B(O)O)cc1
